31 molecules from patent US20090209577A1, “Novel Triazolopyridine Compounds” (PFIZER INC., priority 2004, published 2009) can be followed below.

The structures appear in SMILES notation. Structures can show the parent of a compound that is named as a salt.

The target in the experiment is T1, human p38 kinase alpha (Homo sapiens, UniProt Q16539).
T1 construct: The coding region of the human p38a cDNA was obtained by PCR-amplification from RNA isolated from the human monocyte cell line THP.1; made in house; host or cells: E. coli DH10B
T1 sequence (Q16539 whole entry): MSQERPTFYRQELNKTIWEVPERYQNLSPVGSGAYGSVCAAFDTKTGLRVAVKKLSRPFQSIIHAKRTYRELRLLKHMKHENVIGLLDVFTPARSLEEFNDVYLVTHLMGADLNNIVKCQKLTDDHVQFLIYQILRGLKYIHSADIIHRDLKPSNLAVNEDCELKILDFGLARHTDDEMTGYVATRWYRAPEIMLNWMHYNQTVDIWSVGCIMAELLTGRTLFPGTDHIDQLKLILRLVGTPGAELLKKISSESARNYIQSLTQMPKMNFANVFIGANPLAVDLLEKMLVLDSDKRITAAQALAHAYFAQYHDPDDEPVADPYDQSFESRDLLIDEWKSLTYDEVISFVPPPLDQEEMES
Briefly: p38 kinase in vitro assay (PHAS-I / 32P-ATP format or EGFRP / 33P-ATP format). As to conditions: activated human p38 kinase alpha, 50 μM unlabeled ATP; two assay formats, table does not say which. It is filed as biochemical. The method, then:
The ability of compounds to inhibit human p38 kinase alpha was evaluated using two in vitro assay methods. In the first method, activated human p38 kinase alpha phosphorylates a biotinylated substrate, PHAS-I (phosphorylated heat and acid stable protein-insulin inducible), in the presence of gamma ^32P-ATP (^32P-ATP). PHAS-I was biotinylated prior to the assay and provides a means of capturing the substrate, which is phosphorylated during the assay. p38 Kinase was activated by MKK6. Compounds were tested in 10 fold serial dilutions over the range of 100 μM to 0.001 μM using 1% DMSO. Each concentration of inhibitor was tested in triplicate.
All reactions were carried out in 96 well polypropylene plates. Each reaction well contained 25 mM HEPES pH 7.5, 10 mM magnesium acetate and 50 μM unlabeled ATP. Activation of p38 was required to achieve sufficient signal in the assay. Biotinylated PHAS-1 was used at 1-2 μg per 50 μl reaction volume, with a final concentration of 1.5 μM. Activated human p38 kinase alpha was used at 1 μg per 50 μl reaction volume representing a final concentration of 0.3 μM. Gamma ^32P-ATP was used to follow the phosphorylation of PHAS-1. ^32P-ATP has a specific activity of 3000 Ci/mmol and was used at 1.2 μCi per 50 μl reaction volume. The reaction proceeded either for one hour or overnight at 30° C.
Following incubation, 20 μl of reaction mixture was transferred to a high capacity streptavidin coated filter plate (SAM-streptavidin-matrix, Promega) prewetted with phosphate buffered saline. The transferred reaction mix was allowed to contact the streptavidin membrane of the Promega plate for 1-2 minutes. Following capture of biotinylated PHAS-1 with ^32P incorporated, each well was washed to remove unincorporated ^32P-ATP three times with 2M NaCl, three washes of 2M NaCl with 1% phosphoric, three washes of distilled water and finally a single wash of 95% ethanol. Filter plates were air-dried and 20 μl of scintillant was added. The plates were sealed and counted.
A second assay format was also employed that is based on p38 kinase alpha induced phosphorylation of EGFRP (epidermal growth factor receptor peptide, a 21 mer) in the presence ^33P-ATP. Compounds were tested in 10 fold serial dilutions over the range of 100 μM to 0.001 μM in 1% DMSO. Each concentration of inhibitor was tested in triplicate. Compounds were evaluated in 50 μl reaction volumes in the presence of 25 mM Hepes pH 7.5, 10 mM magnesium acetate, 4% glycerol, 0.4% bovine serum albumin, 0.4 mM DTT, 50 μM unlabeled ATP, 25 μg EGFRP (200 μM), and 0.05 μCi ^33P-ATP. Reactions were initiated by addition of 0.09 μg of activated, purified human GST-p38 kinase alpha. Activation was carried out using GST-MKK6 (5:1, p38:MKK6) for one hour at 30° C. in the presence of 50 μM ATP. Following incubation for 60 minutes at room temperature, the reaction was stopped by addition of 150 μl of AG 1×8 resin in 900 mM sodium formate buffer, pH 3.0 (1 volume resin to 2 volumes buffer). The mixture was mixed three times with pipetting and the resin was allowed to settle. A total of 50 μl of clarified solution head volume was transferred from the reaction wells to Microlite-2 plates. 150 μl of Microscint 40 was then added to each well of the Microlite plate, and the plate was sealed, mixed, and counted.
The above protocol assays were used to determine the IC50 values for compounds in Examples 1-71 above.
A word on the IC50: it is the concentration that inhibits the measured activity by half. High values mean lower potency, low ones higher potency. `CC(C)(C)c1nnc2ccc(OCc3ccc(F)cc3F)cn12` [Example 12, 3-tert-butyl-6-[(2,4-difluorobenzyl)oxy][1,2,4]triazolo[4,3-a]pyridine] came in with an IC50 of 19500 nM.

`CC(C)(C)c1nnc2ccc(O)c(Cc3ccc(F)cc3F)n12` [Example 13, 3-tert-butyl-5-(2,4-difluorobenzyl)[1,2,4]triazolo[4,3-a]pyridin-6-ol]: the IC50 was > 100000 nM.

As for `CC(C)(C)c1nnc2n1CC(c1ocnc1-c1cc(F)c(F)cc1F)CC2` (stereo not shown) [Example 14, 3-tert-butyl-6-[4-(2,4,5-trifluorophenyl)-1,3-oxazol-5-yl]-5,6,7,8-tetrahydro[1,2,4]triazolo[4,3-a]pyridine], half-maximal inhibition (IC50) required 786 nM. Turning to `CC(C)(C)c1nnc2ccc(C(=O)c3ccc(F)cc3F)cn12` [Example 15, (3-tert-butyl[1,2,4]triazolo[4,3-a]pyridin-6-yl)(2,4-difluorophenyl)methanone], the IC50 was 1050 nM.

For the molecule `COC(=O)c1ccc(C)c(-c2nnc3ccc(/C=C/c4ccc(F)cc4F)cn23)c1` [Example 16, methyl 3-{6-[(E)-2-(2,4-difluorophenyl)vinyl][1,2,4]triazolo[4,3-a]pyridin-3-yl}-4-methylbenzoate], half-maximal inhibition (IC50) was put at 17.3 nM. This IC50 lies about 61-fold lower than the previous one. On to `COC(=O)c1ccc(C)c(-c2nnc3ccc(CCc4ccc(F)cc4F)cn23)c1` [Example 17, methyl 3-{6-[2-(2,4-difluorophenyl)ethyl][1,2,4]triazolo[4,3-a]pyridin-3-yl}-4-methylbenzoate], for which the IC50 turned out to be 17.1 nM. For `Cc1ccc(C(=O)O)cc1-c1nnc2ccc(CCc3ccc(F)cc3F)cn12` [Example 21, 3-{6-[2-(2,4-difluorophenyl)ethyl][1,2,4]triazolo[4,3-a]pyridin-3-yl}-4-methylbenzoic acid], half-maximal inhibition (IC50) required 2710 nM. Compared with the last molecule, the IC50 is about 160-fold higher.

Consider `NC(=O)c1ccc(-c2nnc3ccc(Sc4ccc(F)cc4F)cn23)cc1` [Example 23, 4-{6-[(2,4-difluorophenyl)thio][1,2,4]triazolo[4,3-a]pyridin-3-yl}benzamide], for which the IC50 was 201 nM. The value for `CNC(=O)c1ccc(-c2nnc3ccc(Sc4ccc(F)cc4F)cn23)cc1` [Example 24, 4-{6-[(2,4-difluorophenyl)thio][1,2,4]triazolo[4,3-a]pyridin-3-yl}-N-methylbenzamide] was 293 nM; that for `O=C(NCCO)c1ccc(-c2nnc3ccc(Sc4ccc(F)cc4F)cn23)cc1` [Example 25, 4-{6-[(2,4-difluorophenyl)thio][1,2,4]triazolo[4,3-a]pyridin-3-yl}-N-(2-hydroxyethyl)benzamide] was 93.6 nM. Take `NC(=O)c1cccc(-c2nnc3ccc(Sc4ccc(F)cc4F)cn23)c1` [Example 26, 3-{6-[(2,4-difluorophenyl)thio][1,2,4]triazolo[4,3-a]pyridin-3-yl}benzamide]: the midpoint of inhibition, the IC50, lay at 241 nM.

In turn, `NC(=O)c1ccc(-c2nnc3ccc(Cc4ccc(F)cc4F)cn23)cc1` [Example 27, 4-[6-(2,4-difluorobenzyl)[1,2,4]triazolo[4,3-a]pyridin-3-yl]benzamide] yielded an IC50 of 3020 nM. In turn, `NC(=O)c1cccc(-c2nnc3ccc(Cc4ccc(F)cc4F)cn23)c1` [Example 28, 3-[6-(2,4-difluorobenzyl)[1,2,4]triazolo[4,3-a]pyridin-3-yl]benzamide] registered an IC50 of 2980 nM.

The molecule `COC(=O)c1cccc(-c2nnc3ccc(C(=O)c4ccc(F)cc4F)cn23)c1` [Example 29, methyl 3-[6-(2,4-difluorobenzoyl)[1,2,4]triazolo[4,3-a]pyridin-3-yl]benzoate] registered an IC50 of 14000 nM.

In the case of `NC(=O)c1cccc(-c2nnc3ccc(C(=O)c4ccc(F)cc4F)cn23)c1` [Example 30, 3-[6-(2,4-difluorobenzoyl)[1,2,4]triazolo[4,3-a]pyridin-3-yl]benzamide], the IC50 was > 100000 nM. The value for `CC(C)(CC(O)CO)c1nnc2ccc(Sc3ccc(F)cc3F)cn12` (stereo not shown) [Example 33, 4-{6-[(2,4-difluorophenyl)thio][1,2,4]triazolo[4,3,a]pyridin-3-yl}-4-methylpentane-1,2-diol hydrochloride] was 1740 nM; that for `CC(C)c1nnc2cc(Cl)c(Sc3ccc(F)cc3F)c(Cl)n12` [Example 34, 5,7-dichloro-6-[(2,4-difluorophenyl)thio]-3-isopropyl[1,2,4]triazolo[4,3-a]pyridine] was 3380 nM; that for `CC(C)c1nnc2cc(Cl)c(Sc3ccc(F)cc3F)cn12` [Example 35, 7-chloro-6-[(2,4-difluorophenyl)thio]-3-isopropyl[1,2,4]triazolo[4,3-a]pyridine hydrochloride] was 889 nM. In turn, `CC(C)c1nnc2ccc(Sc3ccc(F)cc3F)c(Cl)n12` [Example 36, 5-chloro-6-[(2,4-difluorophenyl)thio]-3-isopropyl[1,2,4]triazolo[4,3-a]pyridine] showed an IC50 of 12.3 nM. This IC50 is about 72-fold lower than that of the molecule before.

`CCCCSc1ccc2nnc(C(C)C)n2c1` [Example 37, 6-(butylthio)-3-isopropyl[1,2,4]triazolo[4,3-a]pyridine hydrochloride]: the IC50 was > 100000 nM. The value for `Cc1c(Sc2ccc(F)cc2F)ccc2nnc(C(C)C)n12` [Example 38, 6-[(2,4-difluorophenyl)thio]-3-isopropyl-5-methyl[1,2,4]triazolo[4,3-a]pyridine] was 101 nM; that for `CC(C)c1nnc2cc(Cl)c(Sc3ccc(F)cc3F)c(Br)n12` [Example 39, 5-bromo-7-chloro-6-[(2,4-difluorophenyl)thio]-3-isopropyl[1,2,4]triazolo[4,3-a]pyridine] was 6080 nM. For the molecule `Fc1cccc(F)c1-c1nnc2ccc(Br)cn12` [Example 40, 6-bromo-3-(2,6-difluorophenyl)[1,2,4]triazolo[4,3-a]pyridine], the IC50 amounted to 13300 nM. The value for `Cc1ccc(C(N)=O)cc1-c1nnc2ccc(Sc3ccc(F)cc3F)cn12` [Example 41, 3-{6-[(2,4-difluorophenyl)thio][1,2,4]triazolo[4,3-a]pyridin-3-yl}-4-methylbenzamide] was 60.8 nM. The value for `Cc1ccc(C(=O)NCC(N)=O)cc1-c1nnc2ccc(Sc3ccc(F)cc3F)cn12` [Example 42, N-(3-{6-[(2,4-difluorophenyl)thio][1,2,4]triazolo[4,3-a]pyridin-3-yl}-4-methylbenzoyl)glycinamide] was 46.5 nM; that for `Cc1ccc(C(=O)NCCO)cc1-c1nnc2ccc(Sc3ccc(F)cc3F)cn12` [Example 43, 3-{6-[(2,4-difluorophenyl)thio][1,2,4]triazolo[4,3-a]pyridin-3-yl}-N-(2-hydroxyethyl)-4-methylbenzamide] was 20.5 nM; that for `O=C(CO)N1CCC(c2nnc3ccc(Sc4ccc(F)cc4F)cn23)CC1` [Example 44, 2-(4-{6-[(2,4-difluorophenyl)thio][1,2,4]triazolo[4,3-a]pyridin-3-yl}piperidin-1-yl)-2-oxoethanol hydrochloride] was 212 nM.

`Cc1cc(CNCCO)ccc1-c1nnc2ccc(Sc3ccc(F)cc3F)cn12` [Example 45, 2-[(4-{6-[(2,4-difluorophenyl)thio][1,2,4]triazolo[4,3-a]pyridin-3-yl}-3-methylbenzyl)amino]ethanol dihydrochloride] returned an IC50 of 33.3 nM. Take `CC1(c2nnc3ccc(Sc4ccc(F)cc4F)cn23)CC1` [Example 46, 6-[(2,4-difluorophenyl)thio]-3-(1-methylcyclopropyl)[1,2,4]triazolo[4,3-a]pyridine hydrochloride]: half-maximal inhibition (IC50) was put at 24.9 nM.

In turn, `Fc1ccc(Sc2ccc3nnc(-c4c(F)cccc4F)n3c2)c(F)c1` [Example 47, 3-(2,6-difluorophenyl)-6-[(2,4-difluorophenyl)thio][1,2,4]triazolo[4,3-a]pyridine] had an IC50 of 7.2 nM. The value for `CC(C)(C)c1nnc2ccc(Sc3ccc(F)cc3F)cn12` [Example 48, 3-tert-butyl-6-[(2,4-difluorophenyl)thio][1,2,4]triazolo[4,3-a]pyridine] was 4.8 nM.
